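Protocol summary: plate cells (96-well), add compound at 5 concentrations, incubate 48 h, interpolate endpoints linearly. TGI is the concentration that stops growth completely.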
How the values were obtained:
Experiment in all cases: DTP human tumour cell line panel, 48 h
786-0 renal = tested on: 786-0 renal
A498 renal = tested on: A498 renal
A549 NSCLC = tested on: A549 NSCLC
ACHN renal = tested on: ACHN renal
BT-549 breast = tested on: BT-549 breast
CAKI-1 renal = tested on: CAKI-1 renal
COLO 205 colon = tested on: COLO 205 colon
DU-145 prostate = tested on: DU-145 prostate
EKVX NSCLC = tested on: EKVX NSCLC
HCC-2998 colon = tested on: HCC-2998 colon
HCT-116 colon = tested on: HCT-116 colon
HCT-15 colon = tested on: HCT-15 colon
HOP-62 NSCLC = tested on: HOP-62 NSCLC
HOP-92 NSCLC = tested on: HOP-92 NSCLC
HS 578T breast = tested on: HS 578T breast
HT29 colon = tested on: HT29 colon
IGROV1 ovarian = tested on: IGROV1 ovarian
K-562 leukemia = tested on: K-562 leukemia
KM12 colon = tested on: KM12 colon
LOX IMVI melanoma = tested on: LOX IMVI melanoma
M14 melanoma = tested on: M14 melanoma
MALME-3M melanoma = tested on: MALME-3M melanoma
MCF7 breast = tested on: MCF7 breast
MDA-MB-231 breast = tested on: MDA-MB-231 breast
MDA-MB-435 = tested on: MDA-MB-435
MDA-N = tested on: MDA-N
MOLT-4 leukemia = tested on: MOLT-4 leukemia
NCI-H226 lung = tested on: NCI-H226 lung
NCI-H23 lung = tested on: NCI-H23 lung
NCI-H460 lung = tested on: NCI-H460 lung
NCI-H522 lung = tested on: NCI-H522 lung
NCI/ADR-RES ovarian = tested on: NCI/ADR-RES ovarian
OVCAR-3 ovarian = tested on: OVCAR-3 ovarian
OVCAR-4 ovarian = tested on: OVCAR-4 ovarian
OVCAR-5 ovarian = tested on: OVCAR-5 ovarian
OVCAR-8 ovarian = tested on: OVCAR-8 ovarian
PC-3 prostate = tested on: PC-3 prostate
RPMI-8226 leukemia = tested on: RPMI-8226 leukemia
SF-268 CNS = tested on: SF-268 CNS
SF-295 CNS = tested on: SF-295 CNS
SF-539 CNS = tested on: SF-539 CNS
SK-MEL-2 melanoma = tested on: SK-MEL-2 melanoma
SK-MEL-28 melanoma = tested on: SK-MEL-28 melanoma
SK-MEL-5 melanoma = tested on: SK-MEL-5 melanoma
SK-OV-3 ovarian = tested on: SK-OV-3 ovarian
SN12C renal = tested on: SN12C renal
SNB-19 CNS = tested on: SNB-19 CNS
SNB-75 CNS = tested on: SNB-75 CNS
SW-620 colon = tested on: SW-620 colon
T-47D breast = tested on: T-47D breast
TK-10 renal = tested on: TK-10 renal
U251 CNS = tested on: U251 CNS
UACC-257 melanoma = tested on: UACC-257 melanoma
UACC-62 melanoma = tested on: UACC-62 melanoma
UO-31 renal = tested on: UO-31 renal

For `COc1ccc(N2C(=O)C3c4[nH]c5cccc(Cl)c5c4C4CCC(C(C)(C)C)CC4C3C2=O)cc1` (stereo not given), the TGI (786-0 renal) was > 100 µM, the TGI (A498 renal) was > 100 µM and the TGI (A549 NSCLC) was > 100 µM. The TGI (ACHN renal) was > 100 µM, the TGI (BT-549 breast) was > 100 µM and the TGI (CAKI-1 renal) was > 100 µM. For the same compound, the TGI (COLO 205 colon) was > 100 µM, the TGI (DU-145 prostate) was > 100 µM and the TGI (EKVX NSCLC) was > 100 µM. For the same compound, the TGI (HCC-2998 colon) was > 100 µM, the TGI (HCT-116 colon) was > 100 µM and the TGI (HCT-15 colon) was > 100 µM. The TGI (HOP-62 NSCLC) was 53.5 µM, the TGI (HOP-92 NSCLC) was > 100 µM and the TGI (HS 578T breast) was 90.7 µM. The TGI (HT29 colon) was > 100 µM, the TGI (IGROV1 ovarian) was > 100 µM and the TGI (K-562 leukemia) was > 100 µM. The TGI (KM12 colon) was > 100 µM, the TGI (LOX IMVI melanoma) was > 100 µM and the TGI (M14 melanoma) was > 100 µM. The TGI (MALME-3M melanoma) was > 100 µM, the TGI (MCF7 breast) was > 100 µM and the TGI (MDA-MB-231 breast) was > 100 µM. For the same compound, the TGI (MDA-MB-435) was > 100 µM, the TGI (MDA-N) was > 100 µM and the TGI (MOLT-4 leukemia) was > 100 µM. For the same compound, the TGI (NCI-H226 lung) was > 100 µM, the TGI (NCI-H23 lung) was > 100 µM and the TGI (NCI-H460 lung) was > 100 µM. The TGI (NCI-H522 lung) was > 100 µM, the TGI (NCI/ADR-RES ovarian) was > 100 µM and the TGI (OVCAR-3 ovarian) was > 100 µM. The TGI (OVCAR-4 ovarian) was > 100 µM, the TGI (OVCAR-5 ovarian) was > 100 µM and the TGI (OVCAR-8 ovarian) was > 100 µM. The TGI (PC-3 prostate) was > 100 µM, the TGI (RPMI-8226 leukemia) was > 100 µM and the TGI (SF-268 CNS) was > 100 µM. For the same compound, the TGI (SF-295 CNS) was > 100 µM, the TGI (SF-539 CNS) was > 100 µM and the TGI (SK-MEL-2 melanoma) was > 100 µM. The TGI (SK-MEL-28 melanoma) was > 100 µM, the TGI (SK-MEL-5 melanoma) was > 100 µM and the TGI (SK-OV-3 ovarian) was > 100 µM. For the same compound, the TGI (SN12C renal) was > 100 µM, the TGI (SNB-19 CNS) was > 100 µM and the TGI (SNB-75 CNS) was 53.2 µM. The TGI (SW-620 colon) was > 100 µM, the TGI (T-47D breast) was > 100 µM and the TGI (TK-10 renal) was > 100 µM. The TGI (U251 CNS) was > 100 µM, the TGI (UACC-257 melanoma) was > 100 µM and the TGI (UACC-62 melanoma) was > 100 µM. The TGI (UO-31 renal) was > 100 µM.

From PubChem BioAssay (NCI)
